Common to all, as to assay type: biochemical
Assay [1] addresses T1, PEGylated chimeric pig-baboon uricase variant dURC3, F75Q/K76N/K79N/T83Q/E90H/F96H/I100E/Y105D/V119K/F172Y/L260N/I262T, SEQ ID NO: 3 (Sus scrofa, UniProt P16164, E96H/F102H/F178Y/F81Q/I106E/I268T/K82N/K85N/L266N/R291K/S46T/T301S/T89Q/V125K/Y111D).
T1 construct: purified, PEGylated with 10 kDa mPEG-NHS, about 10 PEG per monomer
T1 sequence (P16164 with tags, fused parts or gaps S46T/F81Q/K82N/K85N/T89Q/E96H/F102H/I106E/Y111D/V125K/F178Y/L266N/I268T/R291K/T301S): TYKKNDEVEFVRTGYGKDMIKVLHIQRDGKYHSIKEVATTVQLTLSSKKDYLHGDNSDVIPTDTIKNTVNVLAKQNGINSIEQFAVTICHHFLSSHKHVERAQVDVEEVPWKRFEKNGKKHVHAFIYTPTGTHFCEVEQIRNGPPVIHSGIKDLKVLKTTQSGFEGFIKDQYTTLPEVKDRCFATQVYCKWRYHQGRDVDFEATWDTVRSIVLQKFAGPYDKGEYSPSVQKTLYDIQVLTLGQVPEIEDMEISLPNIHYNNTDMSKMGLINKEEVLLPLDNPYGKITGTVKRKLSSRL
Description: Michaelis Menten kinetics of uric acid conversion, PEGylated dURC3. Conditions: role: substrate, Table 4. The protocol: (§1) PEGylation of the wild type chimeric pig-baboon uricase or its variants was performed by the following procedure: • (1) adding 50 fold molar excess methoxy-PEG-(CH2)5COO—NHS of 10 kDa in molecular weight (Chemical Name: Poly(oxy-1,2-ethanediyl), α-methyl-ω-{2-[(2,5-dioxo-1-pyrrolidinyl)oxy]-6-oxohexyloxy}; NOF America Corporation, Cat #SUNBRIGHT ME-100HS) to purified uricase protein on ice and incubating with stirring for one hour; • (2) verifying radius by DLS (14-15 nm radius ~=wild type); • (3) concentrating PEGylated protein using stirred cell with 50 kDa filter to 15 ml; • (4) loading the concentrated PEGylated protein onto a SUPERDEX 200 HILOAD 26/600 column and eluting with PBS; • (5) pooling fractions identified as being mono-disperse by DLS; • (6) concentrating the pooled fractions using a stirred cell with 50 kDa filter to 5 mg/ml.
(§2) dURC3 and the wild type chimeric pig-baboon uricase were successfully PEGylated, with an average of about 10 PEG molecules conjugated to a uricase monomer, based on SDS-PAGE and size exclusion chromatography with multi-angle static light scattering (SEC-MALS) analysis. The activity quantified by Michaelis Menten kinetic analysis, as well as the melting temperature quantified by differential scanning fluorimetry, of PEGylated dURC3 and PEGylated wild type chimeric pig-baboon uricase was determined using the methods described in Example 1.

Assay [2] concerns the target T2, PEGylated chimeric pig-baboon uricase, wild type, SEQ ID NO: 5 (Sus scrofa, UniProt P16164, R291K/S46T/T301S).
T2 construct: His6 (C); made in house; host or cells: E. coli
T2 sequence (P16164 with tags, fused parts or gaps S46T/R291K/T301S limits assumed): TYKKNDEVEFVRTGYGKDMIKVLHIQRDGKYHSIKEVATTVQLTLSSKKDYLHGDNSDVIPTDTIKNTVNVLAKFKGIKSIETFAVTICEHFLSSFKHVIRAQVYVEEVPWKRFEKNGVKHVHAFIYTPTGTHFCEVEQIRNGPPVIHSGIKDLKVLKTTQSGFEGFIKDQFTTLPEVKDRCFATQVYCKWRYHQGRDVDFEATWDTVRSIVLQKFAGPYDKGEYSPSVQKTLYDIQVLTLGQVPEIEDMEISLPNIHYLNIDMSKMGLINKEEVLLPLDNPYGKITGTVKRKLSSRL
In words: Michaelis Menten kinetics of uric acid conversion, PEGylated wild type chimeric pig-baboon uricase. Conditions: role: substrate, Table 4. The protocol: as §1, §2

Assay [3] concerns the target T3, chimeric pig-baboon uricase variant 1 (dURC1), F75Q/K79E/T83Q/E90H/F96H/I100H/Y105D/V119K/Y127H/F172Y/L260N, SEQ ID NO: 1 (Sus scrofa, UniProt P16164, E96H/F102H/F178Y/F81Q/I106H/K85E/L266N/R291K/S46T/T301S/T89Q/V125K/Y111D/Y133H).
T3 construct: purified
T3 sequence (P16164 with tags, fused parts or gaps S46T/F81Q/K85E/T89Q/E96H/F102H/I106H/Y111D/V125K/Y133H/F178Y/L266N/R291K/T301S): T1 sequence (P16164 with tags, fused parts or gaps S46T/F81Q/K82N/K85N/T89Q/E96H/F102H/I106E/Y111D/V125K/F178Y/L266N/I268T/R291K/T301S) with N76K, N79E, E100H, Y127H, T262I
Description: Michaelis Menten kinetics of uric acid conversion, dURC1. Conditions: role: substrate; purified enzyme, non-linear regression; Table 3. On the procedure: (§3) Variants 1 (dURC1) and 3 (dURC3) were identified as possible lead candidates. Besides the mutations according to the library design, i.e., the designed mutations of F75Q; K79N; T83Q; E90H; F96H; I100E; Y105D; V119K; F172Y; L260N; and I262T, dURC3 comprised an off-position amino acid mutation K76N. An off-position amino acid mutation is defined as having a non-designed amino acid at a non-target site. […] Specifically, in the dURC1 backbone, the following mutations were tested separately: L154T; K155D; K155N; L157H; L157T; T159E; T159Q; and S162D; and in the dURC3 backbone, the K155N mutation was tested. […] The characteristics, including yield, activity, melting temperature measured by DSF, temperature at which 50% of normal activity was lost after heating measured by heat stress activity assay, Michaelis-Menten kinetics parameters, of variants 1, 2, 3, and 4 (i.e., dURC1, dURC2, dURC3 and dURC4), as well as the wild type chimeric pig-baboon uricase, are summarized in Table 2. The amino acid sequences of dURC1, dURC2, dURC3 and dURC4 are shown as SEQ ID NO: 1, 2, 3, and 4, respectively.
(§4) The activity of the purified enzymes was quantified by Michaelis Menten kinetic analysis, using the solution phase microplate assay across a range of substrate concentrations (FIG. 4B).

Assay [4] has as its target T4, chimeric pig-baboon uricase variant 4 (dURC4), F75Q/K76N/K79N/T83Q/E90H/F96H/I100E/Y105D/V119K/K155N/F172Y/L260N/I262T, SEQ ID NO: 4 (Sus scrofa, UniProt P16164, E96H/F102H/F178Y/F81Q/I106E/I268T/K161N/K82N/K85N/L266N/R291K/S46T/T301S/T89Q/V125K/Y111D).
T4 construct: purified
T4 sequence (P16164 with tags, fused parts or gaps S46T/F81Q/K82N/K85N/T89Q/E96H/F102H/I106E/Y111D/V125K/K161N/F178Y/L266N/I268T/R291K/T301S): T1 sequence (P16164 with tags, fused parts or gaps S46T/F81Q/K82N/K85N/T89Q/E96H/F102H/I106E/Y111D/V125K/F178Y/L266N/I268T/R291K/T301S) with K155N
In words: Michaelis Menten kinetics of uric acid conversion, dURC4. Conditions: role: substrate; purified enzyme, non-linear regression; Table 3. On the procedure: as §3, §4

Assay [5] has as its target T5, chimeric pig-baboon uricase, wild type, SEQ ID NO: 5 (Sus scrofa, UniProt P16164, R291K/S46T/T301S).
T5 construct: His6 (C); made in house; host or cells: E. coli
T5 sequence (P16164 with tags, fused parts or gaps S46T/R291K/T301S): T2 sequence (P16164 with tags, fused parts or gaps S46T/R291K/T301S limits assumed)
In words: Michaelis Menten kinetics of uric acid conversion, wild type chimeric pig-baboon uricase. Conditions: role: substrate; purified enzyme, non-linear regression; Table 3.
Source text: The monomeric form of the wild type chimeric pig-baboon uricase comprises the amino acid sequence of SEQ ID NO:5, where threonine is residue #1. The specified mutations in the chimeric pig-baboon uricase variants of this example are indexed to threonine as residue #1, as in SEQ ID NO:5. […] The expression vector pET-26b(+) encodes a His tag containing 6 histidine residues at the C-terminus of the inserted uricase gene.
as §4

Assay [6] addresses T6, chimeric pig-baboon uricase variant 3 (dURC3), F75Q/K76N/K79N/T83Q/E90H/F96H/I100E/Y105D/V119K/F172Y/L260N/I262T, SEQ ID NO: 3 (Sus scrofa, UniProt P16164, E96H/F102H/F178Y/F81Q/I106E/I268T/K82N/K85N/L266N/R291K/S46T/T301S/T89Q/V125K/Y111D).
T6 construct: purified
T6 sequence (P16164 with tags, fused parts or gaps S46T/F81Q/K82N/K85N/T89Q/E96H/F102H/I106E/Y111D/V125K/F178Y/L266N/I268T/R291K/T301S): T1 sequence (P16164 with tags, fused parts or gaps S46T/F81Q/K82N/K85N/T89Q/E96H/F102H/I106E/Y111D/V125K/F178Y/L266N/I268T/R291K/T301S)
In words: Michaelis Menten kinetics of uric acid conversion, dURC3. The settings on record: role: substrate. The protocol: An off-position amino acid mutation is defined as having a non-designed amino acid at a non-target site. […] Specifically, in the dURC1 backbone, the following mutations were tested separately: L154T; K155D; K155N; L157H; L157T; T159E; T159Q; and S162D; and in the dURC3 backbone, the K155N mutation was tested. […] The amino acid sequences of dURC1, dURC2, dURC3 and dURC4 are shown as SEQ ID NO: 1, 2, 3, and 4, respectively.
as §4

The target of assay [7] is T7, chimeric pig-baboon uricase variant 2 (dURC2), F75Q/K79E/T83Q/E90H/F96H/I100H/Y105D/V119K/Y127H/K155N/F172Y/L260N, SEQ ID NO: 2 (Sus scrofa, UniProt P16164, E96H/F102H/F178Y/F81Q/I106H/K161N/K85E/L266N/R291K/S46T/T301S/T89Q/V125K/Y111D/Y133H).
T7 construct: purified
T7 sequence (P16164 with tags, fused parts or gaps S46T/F81Q/K85E/T89Q/E96H/F102H/I106H/Y111D/V125K/Y133H/K161N/F178Y/L266N/R291K/T301S): T1 sequence (P16164 with tags, fused parts or gaps S46T/F81Q/K82N/K85N/T89Q/E96H/F102H/I106E/Y111D/V125K/F178Y/L266N/I268T/R291K/T301S) with N76K, N79E, E100H, Y127H, K155N, T262I
In words: Michaelis Menten kinetics of uric acid conversion, dURC2. Conditions: role: substrate; purified enzyme, non-linear regression; Table 3. The protocol:
as §3, §4

Substitutions are numbered along the chain they refer to.

Take `O=c1[nH]c(=O)c2[nH]c(=O)[nH]c2[nH]1` [uric acid]: the Vmax in assay [1] was 67 Δabs/min; in assay [2] it was 170 Δabs/min. The Apparent kcat in assay [3] is reported as 43 ± 2 arbitrary units; in assay [4] it was 28.0 ± 0.5 arbitrary units; in assay [5], 30 ± 1 arbitrary units; in assay [6] (purified enzyme, non-linear regression, Table 3) it was 40 ± 2 arbitrary units; in assay [7] it was 34 ± 1 arbitrary units. Moreover, the “higher apparent kcat compared to the wild type” value in assay [6] (dURC3 relative to wild type chimeric pig-baboon uricase) is reported as 33%.

Source of the values: patent US20260308536A1, “NOVEL URICASE VARIANTS AND METHODS OF USE THEREOF” (priority 2023, published 2026).
